Laboratory results: US6737383B1, “Herbicidal oxadiazolidines” (priority 1999, dated 2004)

How the values were obtained:
bedstraw = assay: Test B pre/postemergence bedstraw; assay type: in vivo, Galium aparine; conditions: for Plant response rating, Bedstraw: scale of 0 to 10 where 0 is no effect and 10 is complete control
Summary of the method: (§1)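 Herbicidal effect was estimated by eye on a ten-point control scale after plants spent twelve to sixteen days in a greenhouse following soil or foliar treatment. Foliar sprays targeted plants at one to four leaves; all doses were formulated in a non-phytotoxic solvent with surfactant.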

smallflower flatsedge = assay: Test B flood test smallflower flatsedge; assay type: in vivo, Cyperus difformis
Summary of the method: (§2)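 Read-out is a visual response score from 0 (no effect) to 10 (complete control), assigned by comparison with untreated controls. Treatment was applied at the 2-leaf stage, and plants stayed in the greenhouse for twelve to sixteen days before scoring.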

wheat = assay: Test B pre/postemergence wheat; assay type: in vivo, Triticum aestivum; conditions: for Plant response rating, Wheat: scale of 0 to 10 where 0 is no effect and 10 is complete control
Summary of the method: as §1

velvetleaf = assay: Test B pre/postemergence velvetleaf; assay type: in vivo, Abutilon theophrasti; conditions: for Plant response rating, Velvetleaf: scale of 0 to 10 where 0 is no effect and 10 is complete control
Summary of the method: as §1

duck salad = assay: Test B flood test duck salad; assay type: in vivo, Heteranthera limosa
Summary of the method: as §2

giant foxtail = assay: Test B pre/postemergence giant foxtail; assay type: in vivo, Setaria faberii
Summary of the method: as §1

purple nutsedge = assay: Test B pre/postemergence purple nutsedge; assay type: in vivo, Cyperus rotundus; conditions: for Plant response rating, Nutsedge: scale of 0 to 10 where 0 is no effect and 10 is complete control
Summary of the method: as §1

wild oat = assay: Test B pre/postemergence wild oat; assay type: in vivo, Avena fatua; conditions: for Plant response rating, Wild oats: scale of 0 to 10 where 0 is no effect and 10 is complete control
Summary of the method: as §1

morningglory = assay: Test B pre/postemergence morningglory; assay type: in vivo, Ipomoea hederacea; conditions: for Plant response rating, Morningglory: scale of 0 to 10 where 0 is no effect and 10 is complete control
Summary of the method: as §1

rape = assay: Test B pre/postemergence rape; assay type: in vivo, Brassica napus; conditions: for Plant response rating, Rape: scale of 0 to 10 where 0 is no effect and 10 is complete control
Summary of the method: as §1

pigweed = assay: Test B pre/postemergence pigweed; assay type: in vivo, Amaranthus retroflexus; conditions: for Plant response rating, Redroot pigweed: scale of 0 to 10 where 0 is no effect and 10 is complete control
Summary of the method: as §1

corn = assay: Test B pre/postemergence corn; assay type: in vivo, Zea mays
Summary of the method: as §1

rice = assay: Test B flood test rice; assay type: in vivo, Oryza sativa
Summary of the method: as §2

soybean = assay: Test B pre/postemergence soybean; assay type: in vivo, Glycine max; conditions: for Plant response rating, Soybean: scale of 0 to 10 where 0 is no effect and 10 is complete control
Summary of the method: as §1

crabgrass = assay: Test B pre/postemergence crabgrass; assay type: in vivo, Digitaria sanguinalis
Summary of the method: as §1

cocklebur = assay: Test B pre/postemergence cocklebur; assay type: in vivo, Xanthium strumarium
Summary of the method: as §1

[1] = Preemergence, Rate 250 g/ha, scale 0 to 10, 0 is no effect, 10 is complete control
[2] = Preemergence, Rate 500 g/ha, scale 0 to 10, 0 is no effect, 10 is complete control
[3] = Rate 62 g/ha, Postemergence, scale 0 to 10 (0 no effect, 10 complete control)
[4] = Rate 125 g/ha, Postemergence, scale 0 to 10, 0 is no effect, 10 is complete control
[5] = Rate 62 g/ha, flood test species, Pre-emergence, visual evaluation after twelve to sixteen days
[6] = Rate 125 g/ha, under heading Pre-emergence, flood test species, visual evaluation after twelve to sixteen days
[7] = Rate 250 g/ha, Pre-emergence (flood test species), scale 0 to 10, 0 is no effect, 10 is complete control
[8] = Rate 500 g/ha, Pre-emergence, flood test species, scale 0 to 10 (0 no effect, 10 complete control)
[9] = Postemergence, Rate 250 g/ha, scale 0 to 10
[10] = Postemergence, Rate 500 g/ha, scale of 0 to 10 where 0 is no effect and 10 is complete control
[11] = Preemergence, Rate 62 g/ha, scale of 0 to 10 where 0 is no effect and 10 is complete control
[12] = Preemergence, Rate 125 g/ha, scale of 0 to 10 where 0 is no effect and 10 is complete control

CC(C)N(C(=O)n1oc(=O)n(COC(=O)C(C)(C)C)c1=O)c1ccc(F)cc1 [Compound 462]
Plant response rating, Bedstraw (bedstraw; Preemergence, Rate 62 g/ha): 0 | Plant response rating, Bedstraw (bedstraw; Preemergence, Rate 125 g/ha): 0 | Bedstraw plant response rating (bedstraw; [1]): 0 | Bedstraw plant response rating (bedstraw; [2]): 0 | Bedstraw plant response rating (bedstraw; [3]): 0 | Bedstraw plant response rating (bedstraw; [4]): 0 | Plant response rating, S. Flatsedge (0 to 10 scale, 0 is no effect, 10 is complete control) (smallflower flatsedge; [5]): 0 | S. Flatsedge plant response rating (0 to 10 scale, 0 is no effect, 10 is complete control) (smallflower flatsedge; [6]): 0 | S. Flatsedge plant response rating (smallflower flatsedge; [7]): 0 | S. Flatsedge plant response rating (smallflower flatsedge; [8]): 0 | Wheat plant response rating (wheat; [9]): 0 | Plant response rating, Wheat (wheat; Preemergence, Rate 62 g/ha): 0 | Plant response rating, Wheat (wheat; Preemergence, Rate 125 g/ha): 0 | Wheat plant response rating (wheat; [1]): 0 | Wheat plant response rating (wheat; [2]): 0 | Wheat plant response rating (wheat; [3]): 0 | Wheat plant response rating (wheat; [4]): 0 | Velvetleaf plant response rating (velvetleaf; [9]): 0 | Plant response rating, Velvetleaf (velvetleaf; Preemergence, Rate 62 g/ha): 0 | Plant response rating, Velvetleaf (velvetleaf; Preemergence, Rate 125 g/ha): 0 | Velvetleaf plant response rating (velvetleaf; [1]): 0 | Velvetleaf plant response rating (velvetleaf; [2]): 0 | Velvetleaf plant response rating (velvetleaf; [3]): 0 | Velvetleaf plant response rating (velvetleaf; [4]): 0 | Plant response rating, Ducksalad (0 to 10 scale, 0 is no effect, 10 is complete control) (duck salad; [5]): 0 | Ducksalad plant response rating (0 to 10 scale, 0 is no effect, 10 is complete control) (duck salad; [6]): 0 | Ducksalad plant response rating (duck salad; [7]): 0 | Ducksalad plant response rating (duck salad; [8]): 0 | Giant foxtail plant response rating (giant foxtail; [9]): 0 | Giant foxtail plant response rating (giant foxtail; [10]): 0 | Plant response rating, Giant foxtail (giant foxtail; [11]): 0 | Plant response rating, Giant foxtail (giant foxtail; [12]): 0 | Giant foxtail plant response rating (giant foxtail; [1]): 0 | Giant foxtail plant response rating (giant foxtail; [2]): 0 | Giant foxtail plant response rating (giant foxtail; [3]): 0 | Giant foxtail plant response rating (giant foxtail; [4]): 0 | Nutsedge plant response rating (purple nutsedge; [9]): 0 | Plant response rating, Nutsedge (purple nutsedge; Preemergence, Rate 62 g/ha): 0 | Plant response rating, Nutsedge (purple nutsedge; Preemergence, Rate 125 g/ha): 0 | Nutsedge plant response rating (purple nutsedge; [1]): 0 | Nutsedge plant response rating (purple nutsedge; [2]): 0 | Nutsedge plant response rating (purple nutsedge; [3]): 0 | Nutsedge plant response rating (purple nutsedge; [4]): 0 | Wild oats plant response rating (wild oat; [9]): 0 | Plant response rating, Wild oats (wild oat; Preemergence, Rate 62 g/ha): 0 | Plant response rating, Wild oats (wild oat; Preemergence, Rate 125 g/ha): 0 | Wild oats plant response rating (wild oat; [1]): 0 | Wild oats plant response rating (wild oat; [2]): 0 | Wild oats plant response rating (wild oat; [3]): 0 | Wild oats plant response rating (wild oat; [4]): 0 | Morningglory plant response rating (morningglory; [9]): 0 | Plant response rating, Morningglory (morningglory; Preemergence, Rate 62 g/ha): 0 | Plant response rating, Morningglory (morningglory; Preemergence, Rate 125 g/ha): 0 | Morningglory plant response rating (morningglory; [1]): 0 | Morningglory plant response rating (morningglory; [2]): 0 | Morningglory plant response rating (morningglory; [3]): 0 | Morningglory plant response rating (morningglory; [4]): 0 | Rape plant response rating (rape; [9]): 0 | Plant response rating, Rape (rape; Preemergence, Rate 62 g/ha): 0 | Plant response rating, Rape (rape; Preemergence, Rate 125 g/ha): 0 | Rape plant response rating (rape; [1]): 0 | Rape plant response rating (rape; [2]): 0 | Rape plant response rating (rape; [3]): 0 | Rape plant response rating (rape; [4]): 0 | Redroot pigweed plant response rating (pigweed; [9]): 0 | Plant response rating, Redroot pigweed (pigweed; Preemergence, Rate 62 g/ha): 0 | Plant response rating, Redroot pigweed (pigweed; Preemergence, Rate 125 g/ha): 0 | Redroot pigweed plant response rating (pigweed; [1]): 0 | Redroot pigweed plant response rating (pigweed; [2]): 0 | Redroot pigweed plant response rating (pigweed; [3]): 0 | Redroot pigweed plant response rating (pigweed; [4]): 0 | Corn plant response rating (corn; [9]): 0 | Corn plant response rating (corn; [10]): 0 | Plant response rating, Corn (corn; [11]): 0 | Plant response rating, Corn (corn; [12]): 0 | Corn plant response rating (corn; [1]): 0 | Corn plant response rating (corn; [2]): 0 | Corn plant response rating (corn; [3]): 0 | Corn plant response rating (corn; [4]): 0 | Plant response rating, Rice (0 to 10 scale, 0 is no effect, 10 is complete control) (rice; [5]): 0 | Rice plant response rating (0 to 10 scale, 0 is no effect, 10 is complete control) (rice; [6]): 0 | Rice plant response rating (rice; [7]): 0 | Rice plant response rating (rice; [8]): 0 | Plant response rating, Soybean (soybean; Preemergence, Rate 62 g/ha): 0 | Plant response rating, Soybean (soybean; Preemergence, Rate 125 g/ha): 0 | Soybean plant response rating (soybean; [1]): 0 | Soybean plant response rating (soybean; [2]): 0 | Soybean plant response rating (soybean; [3]): 0 | Soybean plant response rating (soybean; [4]): 1 | Crabgrass plant response rating (crabgrass; [9]): 0 | Crabgrass plant response rating (crabgrass; [10]): 0 | Plant response rating, Crabgrass (crabgrass; [11]): 0 | Plant response rating, Crabgrass (crabgrass; [12]): 0 | Crabgrass plant response rating (crabgrass; [1]): 0 | Crabgrass plant response rating (crabgrass; [2]): 0 | Crabgrass plant response rating (crabgrass; [3]): 0 | Crabgrass plant response rating (crabgrass; [4]): 0 | Cocklebur plant response rating (cocklebur; [9]): 0 | Cocklebur plant response rating (cocklebur; [10]): 0 | Plant response rating, Cocklebur (cocklebur; [11]): 0 | Plant response rating, Cocklebur (cocklebur; [12]): 0 | Cocklebur plant response rating (cocklebur; [1]): 0 | Cocklebur plant response rating (cocklebur; [2]): 0 | Cocklebur plant response rating (cocklebur; [3]): 0 | Cocklebur plant response rating (cocklebur; [4]): 0
